Assay results as given in patent US20260308149A1, “NOVEL CARBOXAMIDE DERIVATIVES” (ANGELINI PHARMA S.P.A., priority 2023, published 2026).

Target: T1, human Kv7.2 (Homo sapiens, UniProt O43526)
T1 construct: expressed in transfected cells
Assay: activation (potentiation) of Kv7.2 current, SyncroPatch 384 electrophysiology in CHO cells stably expressing human Kv7.2
Format: cell-based
Settings: human Kv7.2 in CHO cells; in presence of 5.6 μM zinc pyrithione; % activation relative to 30 μM ML-213
Experimental: The potency of Kv7 potentiators was determined using the SyncroPatch 384 (Nanion) high throughput electrophysiology platform.
CHO cells stably expressing either human Kv7.2, Kv7.4 or Kv7.5/7.3 under a constitutive CMV promoter were used for these studies. Cells were maintained in F12 Hams+1 mM L-glutamine (Hyclone) supplemented with 10% FBS (Sigma), 0.3×NEAA (Non-essential Gamino-acids) and 400 ug/ml G418 at 37° C. in 5% CO2. Cells were cultured in T-225 flasks (Nunc) for 2-3 days to reach 85-95% confluence prior to electrophysiological recording.
Earle's balanced salt solution (in mM): 135 NaCl, 5.4 KCl, 5 Glucose, 2 CaCl2), 1 MgCl2, 5 HEPES, pH 7.4. Seal enhancer solution (in mM): 90 NaCl, 3 KCl, 35 CaCl2), 10 MgCl2, 10 HEPES, pH 7.4. Extracellular recording solution (in mM): 71 NaCl, 70 NMDG, 13 KCl. 5 Glucose, 2 CaCl2, 1 MgCl2, 10 HEPES, pH 7.4. Intracellular recording solution (in mM): 130 KF, 20 KCl, 4 EGTA, 10 HEPES, 2 EDTA, 0.01 Escin, pH 7.2.
Cells were harvested for electrophysiological recording upon reaching appropriate confluence. Cells were first washed in DPBS (Hyclone, Cat #SH30028.03) and then 2 ml of Accutase (MP Biomedicals #1000449) was added at 28° C. until ~90% of cells were suspended. F12 HAM's media+1 mM L-glutamine (Hyclone, SH30026.02) was then added to the flask to dilute the accutase. Cells were then triturated until a single cell suspension was achieved, a cell count was performed, and cells were centrifuged for 2 min. at 1,000 rpm. Media was then aspirated, and cells were resuspended in Earle's balanced salt solution to a concentration of 0.75×10^6 cells/ml and allowed to recover for 25 min at 10° C.
At the beginning of each assay, 20 μl of cell suspension was dispensed into each well of a multi-hole 384-well SyncroPatch chip by the onboard pipettor. Cell sealing was initiated, and seal enhancer solution was added to facilitate seal formation. Upon completion of sealing, cells were washed 3 times with extracellular recording solution and the assay voltage protocol was started. Human Kv7.2, Kv7.4 or Kv7.5/7.3 channels were evaluated using a voltage protocol in which cells were voltage-clamped at a holding potential of −60 mV. Potassium currents were continuously activated with a series of three voltage steps to −30 mV for 3 seconds, 40 mV for 1 second and −90 mV for 4 seconds with 12 seconds between successive voltage sweeps. Potassium currents were measured from the −90 mV repolarizing step. Baseline current was assessed for 3.5 minutes prior to the addition of 5.6 μM zinc pyrithione (1 μM for Kv7.4). Kv7.2, Kv7.4 or Kv7.5/7.3 current in the presence of zinc pyrithione was acquired over five minutes to allow channels to reach steady state activity prior to addition of test agents. Channel activity was monitored for three minutes preceding the addition of 30 μM ML-213 (3 minutes) to achieve maximum activation. 150 mM TEA with 10 μM XE-991 was applied for 2 minutes to measure the leak current during maximum inhibition of Kv7.2, Kv7.4 or Kv7.5/7.3 channels.
Data were collected on the SyncroPatch platform using PatchControl software (Nanion) and processed and analyzed using DataControl Software (Nanion). Percent activation was calculated from potassium current as follows: The average current for the 5 sweeps in the presence of zinc pyrithione immediately preceding test agent addition was taken as the ‘control’ data. Likewise, the average potassium current in the presence of test agents 5 sweeps immediately preceding addition of 30 μM ML-213 was determined for ‘drug’ data. The average potassium current 5 sweeps immediately prior to addition of 150 mM TEA+10 μM XE-991 was determined for ‘max activation’ data while average currents from 5 sweeps immediately following addition of TEA was determined for ‘max inhibition’ data. Percent activation for each of the 384-wells of a sealchip was calculated as ((‘drug’−‘max inhibition’)/(‘max activation’−‘max inhibition’))*100 with Pipeline Pilot (Accelrys). […]

T1 sequence (O43526 whole entry): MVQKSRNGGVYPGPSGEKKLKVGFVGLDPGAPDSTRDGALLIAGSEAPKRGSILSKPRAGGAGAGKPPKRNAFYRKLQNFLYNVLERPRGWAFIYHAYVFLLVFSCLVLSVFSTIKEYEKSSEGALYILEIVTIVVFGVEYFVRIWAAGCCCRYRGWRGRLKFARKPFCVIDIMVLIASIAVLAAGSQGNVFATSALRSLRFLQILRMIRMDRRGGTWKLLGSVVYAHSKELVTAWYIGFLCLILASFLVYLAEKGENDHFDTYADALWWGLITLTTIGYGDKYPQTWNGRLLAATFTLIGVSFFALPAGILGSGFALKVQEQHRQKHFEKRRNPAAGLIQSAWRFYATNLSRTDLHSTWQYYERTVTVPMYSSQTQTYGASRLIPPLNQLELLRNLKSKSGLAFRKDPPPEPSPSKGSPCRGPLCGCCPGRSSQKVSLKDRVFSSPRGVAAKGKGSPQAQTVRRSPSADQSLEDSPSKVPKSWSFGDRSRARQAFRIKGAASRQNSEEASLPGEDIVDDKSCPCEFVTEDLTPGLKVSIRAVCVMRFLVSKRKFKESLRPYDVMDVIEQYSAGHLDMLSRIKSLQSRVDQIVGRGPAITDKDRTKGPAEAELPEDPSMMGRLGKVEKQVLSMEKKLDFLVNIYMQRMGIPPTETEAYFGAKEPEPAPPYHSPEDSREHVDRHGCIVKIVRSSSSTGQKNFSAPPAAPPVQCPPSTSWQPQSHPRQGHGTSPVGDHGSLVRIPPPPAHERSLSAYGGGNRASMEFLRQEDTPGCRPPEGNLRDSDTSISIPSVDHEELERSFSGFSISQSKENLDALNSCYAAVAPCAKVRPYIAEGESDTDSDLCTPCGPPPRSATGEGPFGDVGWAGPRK

| EC50 | Compound |
| --- | --- |
| 6650 nM | N#Cc1cccc([C@@]2(CNC(=O)C3CC4CCC3CC4)CCO2)c1 (stereo partly drawn) [Example 98, N-[[(2R)-2-(3-cyanophenyl)oxetan-2-yl]methyl]bicyclo[2.2.2]octane-2-carboxamide] |
| 6010 nM | N#Cc1cccc([C@]2(CNC(=O)[C@H]3C[C@@H]3c3ccccn3)CCO2)c1 (mixture of isomers) [Example 124, (1SR,2SR)—N-[[(2S)-2-(3-cyanophenyl)oxetan-2-yl]methyl]-2-(2-pyridyl)cyclopropanecarboxamide] |
| 2180 nM | CC(F)(F)[C@H]1C[C@@H]1C(=O)NC[C@@]1(c2cccc(C#N)c2)CCO1 (mixture of isomers) [Example 113, (1SR,2SR)—N-[[(2S)-2-(3-cyanophenyl)oxetan-2-yl]methyl]-2-(1,1-difluoroethyl)cyclopropanecarboxamide] |
| 430 nM | O=C(CC1CCCCC1)NCC1(c2cccc(Cl)c2)CCO1 (stereo not drawn) [Example 57, N-[[2-(3-chlorophenyl)oxetan-2-yl]methyl]-2-cyclohexyl-acetamide] |
| 50 nM | O=C(NC[C@@]1(c2cccc(Cl)c2)OCC1(F)F)[C@H]1C[C@@H]1c1ccccc1 (stereo in doubt) [Example 41, (1S,2S)-N-[[(2R)-2-(3-chlorophenyl)-3,3-difluoro-oxetan-2-yl]methyl]-2-phenyl-cyclopropanecarboxamide] |
| 1920 nM | O=C(CC1CCC(F)(F)CC1)NCC1(c2cccc(Cl)c2)CCO1 (stereo not drawn) [Example 65, N-[[2-(3-chlorophenyl)oxetan-2-yl]methyl]-2-(4,4-difluorocyclohexyl)acetamide] |
| 130 nM | N#Cc1cccc([C@]2(CNC(=O)[C@H]3C[C@@H]3c3ccc(F)cc3)CCO2)c1 (mixture of isomers) [Example 107, (1SR,2SR)—N-[[(2S)-2-(3-cyanophenyl)oxetan-2-yl]methyl]-2-(4-fluorophenyl)cyclopropanecarboxamide] |
| 3270 nM | COc1cccc(NC(=O)NCC2(c3cccc(C)c3)OCCO2)c1 [Example 27, 1-(3-methoxyphenyl)-3-[[2-(m-tolyl)-1,3-dioxolan-2-yl]methyl]urea] |
| 170 nM | O=C(NCC1(c2cccc(OC(F)F)n2)CCO1)C1CC12CCCCC2 (stereo not drawn) [Example 123, N-[[2-[6-(difluoromethoxy)-2-pyridyl]oxetan-2-yl]methyl]spiro[2.5]octane-2-carboxamide] |
| 810 nM | O=C(NCC1(c2cccc(Cl)c2)CCO1)Nc1cccc(Cl)c1 (stereo not drawn) [Example 58] |
| 170 nM | COC(C)(CNC(=O)[C@H]1C[C@@H]1c1ccccc1)c1cccc(Cl)c1 (mixture of isomers) [Example 1, rac-(1S,2S)-N-[2-(3-chlorophenyl)-2-methoxy-propyl]-2-phenyl-cyclopropanecarboxamide] |
| 1320 nM | CC(C#N)(CNC(=O)[C@H]1C[C@@H]1c1ccccc1)c1cccc(Cl)c1 (mixture of isomers) [Example 37, rac-(1S,2S)-N-[2-(3-chlorophenyl)-2-cyano-propyl]-2-phenyl-cyclopropanecarboxamide] |
| 890 nM | COC(C)(CNC(=O)CCC1CCCC1)c1cccc(Cl)c1 (stereo not drawn) [Example 53, N-[2-(3-chlorophenyl)-2-methoxy-propyl]-3-cyclopentyl-propanamide] |
| 760 nM | COC(C)(CNC(=O)NCc1cccc(F)c1)c1cccc(Cl)c1 (stereo not drawn) [Example 10, 1-[2-(3-chlorophenyl)-2-methoxy-propyl]-3-[(3-fluorophenyl)methyl]urea] |
| 380 nM | CO[C@@](C)(CNC(=O)C1CC12CCC(F)(F)CC2)c1cccc(Cl)c1 (stereo partly drawn) [Example 83, N-[(2R)-2-(3-chlorophenyl)-2-methoxy-propyl]-6,6-difluoro-spiro[2.5]octane-2-carboxamide] |
| 4980 nM | CC[C@H]1C[C@@H]1C(=O)NC[C@@]1(c2cccc(C#N)c2)CCO1 (mixture of isomers) [Example 126, (1SR,2SR)—N-[[(2S)-2-(3-cyanophenyl)oxetan-2-yl]methyl]-2-ethyl-cyclopropanecarboxamide] |
| 2920 nM | O=C(NCC1(c2cccc(Cl)c2)CC1)NC1COC2(CCCC2)C1 (stereo not drawn) [Example 12, 1-[[1-(3-chlorophenyl)cyclopropyl]meth-yl]-3-(1-oxaspiro[4.4]nonan-3-yl)urea] |
| 5690 nM | COC(C)(CNC(=O)Nc1cccc(OC(F)(F)F)c1)c1cccc(Cl)c1 (stereo not drawn) [Example 29, 1-[2-(3-chlorophenyl)-2-methoxy-propyl]-3-[3-(trifluoromethoxy)phenyl]urea] |
| 5620 nM | O=C(NC(CO)C1(c2cccc(Cl)c2)CC1)[C@H]1C[C@@H]1c1ccccc1 (stereo partly drawn) [Example 86, (1S,2S)—N-[1-[1-(3-chlorophenyl)cyclopropyl]-2-hydroxy-ethyl]-2-phenyl-cyclopropanecarboxamide] |
| 940 nM | COC(C)(CNC(=O)[C@H]1C[C@@H]1c1ccccc1)c1ccnc(Cl)c1 (mixture of isomers) [Example 51, (1S,2S)-N-[(2RS)-2-(2-chloro-4-pyridyl)-2-methoxy-propyl]-2-phenyl-cyclopropanecarboxamide] |
| 970 nM | COC(CNC(=O)[C@H]1C[C@@H]1c1ccccc1)c1cccc(Cl)c1 (mixture of isomers) [Example 20, rac-(1R,2R)-N-[2-(3-chlorophenyl)-2-methoxy-ethyl]-2-phenyl-cyclopropanecarboxamide] |
| 90 nM | N#Cc1cccc([C@]2(CNC(=O)[C@H]3C[C@@H]3C3CCCC3)CCO2)c1 [Example 112, (1S,2R)—N-[[(2S)-2-(3-cyanophenyl)oxetan-2-yl]methyl]-2-cyclopentyl-cyclopropanecarboxamide] |
| 4080 nM | N#Cc1cccc([C@]2(CNC(=O)C3CC34CCOCC4)CCO2)c1 (stereo partly drawn) [Example 106, N-[[(2S)-2-(3-cyanophenyl)oxetan-2-yl]methyl]-6-oxaspiro[2.5]octane-2-carboxamide] |
| 2720 nM | O=C(NCC1(c2cccc(Cl)c2)CC1)NC1CCCC1 [Example 7, 1-[[1-(3-chlorophenyl)cyclopropyl]meth-yl]-3-cyclopentyl-urea] |
| 2550 nM | N#Cc1cccc([C@]2(CNC(=O)[C@H]3C[C@@H]3C(F)(F)F)CCO2)c1 [Example 95, (1S,2S)—N-[[(2S)-2-(3-cyanophenyl)oxetan-2-yl]methyl]-2-(trifluoromethyl)cyclopropanecarboxamide] |
| 910 nM | N#Cc1cccc([C@]2(CNC(=O)C3CC4(C3)CC43CCC3)CCO2)c1 (stereo partly drawn) [Example 105, N-[[(2S)-2-(3-cyanophenyl)oxetan-2-yl]methyl]dispiro[3.0.3^5.1^4]nonane-7-carboxamide] |
| 6790 nM | O=C(NC/C(=C/CO)c1cccc(Cl)c1)NCC1CCCC1 [Example 78, 1-[(E)-2-(3-chlorophenyl)-4-hydroxy-but-2-enyl]-3-(cyclopentylmethyl)urea] |
| 5430 nM | N#Cc1cccc([C@]2(CNC(=O)CC3CCCCC3)CCO2)c1 [Example 93, N-[[(2S)-2-(3-cyanophenyl)oxetan-2-yl]methyl]-2-cyclohexyl-acetamide] |
| 1120 nM | CO[C@@](C)(CNC(=O)[C@@H]1C[C@H]1C1CC1)c1cccc(Cl)c1 (mixture of isomers) [Example 79, (1RS,2SR)—N-[(2R)-2-(3-chlorophenyl)-2-methoxy-propyl]-2-cyclopropyl-cyclopropanecarboxamide] |

| Compound | EC50 |
| --- | --- |
| O=C(NCC(OC1CCC1)c1cccc(Cl)c1)NC1C[C@H]2CC[C@@H]1C2 (mixture of isomers) [Example 46, 1-[2-(3-chlorophenyl)-2-(cyclobutoxy)ethyl]-3-[rac-(1R,4S)-norbornan-2-yl]urea] | 3350 nM |
